Legend:
[1] = tested on: M. catarrhalis (ATCC 25238); experiment: MIC, NCCLS broth microdilution; type: cell-based, Moraxella (now Branhamella) catarrhalis; conditions: H = M. catarrhalis (ATCC 25238)
Method in brief: (§1)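 Broth microdilution MIC per NCCLS M7-A4 and M11-A4 for bacteria (MRSA strain for S. aureus ATCC 27660); antifungal MIC per NCCLS M27-T with the Murray 1995 Manual of Clinical Microbiology method. MIC taken as lowest inhibitory concentration.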

[2] = tested on: E. coli ATCC 25922; experiment: MIC, NCCLS broth microdilution; type: cell-based, Escherichia coli; conditions: G = E. coli ATCC 25922
Method in brief: (§2)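 Compounds were serially diluted in broth and tested against each strain according to NCCLS guidelines, with MIC taken as the endpoint. C. albicans was assayed per the Manual of Clinical Microbiology.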

[3] = tested on: E. faecalis ATCC 29212; experiment: MIC, NCCLS broth microdilution; type: cell-based, Enterococcus faecalis; conditions: C = E. faecalis ATCC 29212
Method in brief: as §2

[4] = tested on: C. albicans ATCC 38247; experiment: MIC, antifungal assay; type: cell-based, Candida albicans; conditions: F = C. albicans ATCC 38247
Method in brief: as §1

[5] = tested on: S. pneumoniae ATCC 49619; experiment: MIC, NCCLS broth microdilution; type: cell-based, Streptococcus pneumoniae; conditions: E = S. pneumoniae ATCC 49619
Method in brief: as §2

[6] = tested on: B. cereus ATCC 11778; experiment: MIC, NCCLS broth microdilution; type: cell-based, Bacillus cereus; conditions: D = B. cereus ATCC 11778
Method in brief: as §1

[7] = tested on: S. aureus ATCC 27660; experiment: MIC, NCCLS broth microdilution; type: cell-based, Staphylococcus aureus; conditions: B = S. aureus ATCC 27660 (MRSA)
Method in brief: as §1

[8] = tested on: S. aureus ATCC 13709; experiment: MIC, NCCLS broth microdilution; type: cell-based, Staphylococcus aureus; conditions: A = S. aureus ATCC 13709 (MSSA)
Method in brief: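 Minimal inhibitory concentration determined by NCCLS broth microdilution in microtiter plates per documents M7-A4, M11-A4 and M27-T. S. aureus ATCC 27660 is a methicillin-resistant strain. The antifungal test on C. albicans followed the method recommended in the Manual of Clinical Microbiology (1995).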

Row | Minimum Inhibitory Concentration (MIC) [1] | Minimum Inhibitory Concentration (MIC) [2] | Minimum Inhibitory Concentration (MIC) [3] | Minimum Inhibitory Concentration (MIC) [4] | Minimum Inhibitory Concentration (MIC) [5] | Minimum Inhibitory Concentration (MIC) [6] | Minimum Inhibitory Concentration (MIC) [7] | Minimum Inhibitory Concentration (MIC) [8] | Compound
1 | ++ (4 < MIC < 12 μg/mL) | >32 µg/mL | +++ (MIC ≦ 4 μg/mL) | >32 µg/mL | +++ (MIC ≦ 4 μg/mL) | +++ (MIC ≦ 4 μg/mL) | +++ (MIC ≦ 4 μg/mL) | +++ (MIC ≦ 4 μg/mL) | CC(C)C(CO)NCCNC(=O)c1nc(NC(=O)c2ccc(NC(=O)c3cc(NC(=O)c4cc5ccccc5cn4)cn3C)cc2)cn1C (centres unmarked) [Compound A-46]
2 | +++ (MIC ≦ 4 μg/mL) | >32 µg/mL | +++ (MIC ≦ 4 μg/mL) | + (12 ≦ MIC ≦ 32 μg/mL) | +++ (MIC ≦ 4 μg/mL) | +++ (MIC ≦ 4 μg/mL) | +++ (MIC ≦ 4 μg/mL) | +++ (MIC ≦ 4 μg/mL) | Cn1cc(NC(=O)c2cc3ccccc3cn2)cc1C(=O)Nc1ccc(C(=O)Nc2cn(C)c(C(=O)NCCN3CCNCC3)n2)cc1 [Compound A-47]
3 | +++ (MIC ≦ 4 μg/mL) | >32 µg/mL | +++ (MIC ≦ 4 μg/mL) | >32 µg/mL | +++ (MIC ≦ 4 μg/mL) | +++ (MIC ≦ 4 μg/mL) | +++ (MIC ≦ 4 μg/mL) | +++ (MIC ≦ 4 μg/mL) | CCOC(=O)C1CCN(CCNC(=O)c2nc(NC(=O)c3ccc(NC(=O)c4cc(NC(=O)c5cc6ccccc6cn5)cn4C)cc3)cn2C)CC1 [Compound A-48]
4 | >32 µg/mL | >32 µg/mL | + (12 ≦ MIC ≦ 32 μg/mL) | >32 µg/mL | +++ (MIC ≦ 4 μg/mL) | >32 µg/mL | +++ (MIC ≦ 4 μg/mL) | +++ (MIC ≦ 4 μg/mL) | Cn1cc(NC(=O)c2cc3ccccc3cn2)cc1C(=O)Nc1ccc(C(=O)Nc2cn(C)c(C(=O)NCCNC(CO)(CO)CO)n2)cc1 [Compound A-49]

The remaining lines, values behind:

Row | Compound | Minimum Inhibitory Concentration (MIC) [1] | Minimum Inhibitory Concentration (MIC) [2] | Minimum Inhibitory Concentration (MIC) [3] | Minimum Inhibitory Concentration (MIC) [4] | Minimum Inhibitory Concentration (MIC) [5] | Minimum Inhibitory Concentration (MIC) [6] | Minimum Inhibitory Concentration (MIC) [7] | Minimum Inhibitory Concentration (MIC) [8]
5 | Cn1cc(NC(=O)c2cc3ccccc3cn2)cc1C(=O)Nc1ccc(C(=O)Nc2cn(C)c(C(=O)NCCNCCN3CCCC3)n2)cc1 [Compound A-36] | ++ (4 < MIC < 12 μg/mL) | >32 µg/mL | +++ (MIC ≦ 4 μg/mL) | + (12 ≦ MIC ≦ 32 μg/mL) | +++ (MIC ≦ 4 μg/mL) | +++ (MIC ≦ 4 μg/mL) | +++ (MIC ≦ 4 μg/mL) | +++ (MIC ≦ 4 μg/mL)
6 | CCCNCCNC(=O)c1nc(NC(=O)c2ccc(NC(=O)c3cc(NC(=O)c4cc5ccccc5cn4)cn3C)cc2)cn1C [Compound A-37] | +++ (MIC ≦ 4 μg/mL) | +++ (MIC ≦ 4 μg/mL) | +++ (MIC ≦ 4 μg/mL) | >32 µg/mL | +++ (MIC ≦ 4 μg/mL) | +++ (MIC ≦ 4 μg/mL) | +++ (MIC ≦ 4 μg/mL) | +++ (MIC ≦ 4 μg/mL)
7 | COCC(C)NCCNC(=O)c1nc(NC(=O)c2ccc(NC(=O)c3cc(NC(=O)c4cc5ccccc5cn4)cn3C)cc2)cn1C (centres unmarked) [Compound A-38] | +++ (MIC ≦ 4 μg/mL) | >32 µg/mL | +++ (MIC ≦ 4 μg/mL) | >32 µg/mL | +++ (MIC ≦ 4 μg/mL) | +++ (MIC ≦ 4 μg/mL) | +++ (MIC ≦ 4 μg/mL) | +++ (MIC ≦ 4 μg/mL)
8 | COCCCNCCNC(=O)c1nc(NC(=O)c2ccc(NC(=O)c3cc(NC(=O)c4cc5ccccc5cn4)cn3C)cc2)cn1C [Compound A-39] | >32 µg/mL | >32 µg/mL | +++ (MIC ≦ 4 μg/mL) | >32 µg/mL | +++ (MIC ≦ 4 μg/mL) | +++ (MIC ≦ 4 μg/mL) | +++ (MIC ≦ 4 μg/mL) | +++ (MIC ≦ 4 μg/mL)
9 | Cn1cc(NC(=O)c2cc3ccccc3cn2)cc1C(=O)Nc1ccc(C(=O)Nc2cn(C)c(C(=O)NCCN3CCCCC3CN3CCCC3)n2)cc1 (centres unmarked) [Compound A-40] | ++ (4 < MIC < 12 μg/mL) | >32 µg/mL | +++ (MIC ≦ 4 μg/mL) | >32 µg/mL | +++ (MIC ≦ 4 μg/mL) | +++ (MIC ≦ 4 μg/mL) | +++ (MIC ≦ 4 μg/mL) | +++ (MIC ≦ 4 μg/mL)
10 | Cn1cc(NC(=O)c2cc3ccccc3cn2)cc1C(=O)Nc1ccc(C(=O)Nc2cn(C)c(C(=O)NCCN3CCC(F)CC3)n2)cc1 [Compound A-41] | +++ (MIC ≦ 4 μg/mL) | >32 µg/mL | +++ (MIC ≦ 4 μg/mL) | >32 µg/mL | +++ (MIC ≦ 4 μg/mL) | +++ (MIC ≦ 4 μg/mL) | +++ (MIC ≦ 4 μg/mL) | +++ (MIC ≦ 4 μg/mL)
11 | Cn1cc(NC(=O)c2cc3ccccc3cn2)cc1C(=O)Nc1ccc(C(=O)Nc2cn(C)c(C(=O)NCCNCCOCCOCCN)n2)cc1 [Compound A-42] | >32 µg/mL | >32 µg/mL | +++ (MIC ≦ 4 μg/mL) | + (12 ≦ MIC ≦ 32 μg/mL) | + (12 ≦ MIC ≦ 32 μg/mL) | ++ (4 < MIC < 12 μg/mL) | +++ (MIC ≦ 4 μg/mL) | +++ (MIC ≦ 4 μg/mL)
12 | Cn1cc(NC(=O)c2cc3ccccc3cn2)cc1C(=O)Nc1ccc(C(=O)Nc2cn(C)c(C(=O)NCCNCCCO)n2)cc1 [Compound A-43] | >32 µg/mL | >32 µg/mL | +++ (MIC ≦ 4 μg/mL) | >32 µg/mL | +++ (MIC ≦ 4 μg/mL) | +++ (MIC ≦ 4 μg/mL) | +++ (MIC ≦ 4 μg/mL) | +++ (MIC ≦ 4 μg/mL)
13 | Cn1cc(NC(=O)c2cc3ccccc3cn2)cc1C(=O)Nc1ccc(C(=O)Nc2cn(C)c(C(=O)NCCNCCO)n2)cc1 [Compound A-45] | + (12 ≦ MIC ≦ 32 μg/mL) | >32 µg/mL | +++ (MIC ≦ 4 μg/mL) | >32 µg/mL | +++ (MIC ≦ 4 μg/mL) | +++ (MIC ≦ 4 μg/mL) | +++ (MIC ≦ 4 μg/mL) | +++ (MIC ≦ 4 μg/mL)
